The text below walks through data of patent publication US20240360137A1 (Novartis AG, priority 2023, published 2024).

Common to all, as to assay: CDKi biochemical assay (TR-FRET, phosphorylation of S780 on RB1 peptide)
One experiment addresses CDK2/CyclinE1 (Homo sapiens, UniProt P24941). To be noted: CDK2/CyclinE1 100 pM, 1 mM ATP, 60 min at 25° C. The protocol:
(§1) Biochemical assays measured the inhibitory effects of compounds in this disclosure on the enzymatic activity of CDK enzyme in complex with Cyclin protein partner by phosphorylation of Ser-780 (S780) on retinoblastoma protein peptide (RB1) in the presence of 1 mM adenosime-5-triphosphate (ATP) and varying concentration of test compound in 20 mM 2-[4-(2-hydroxyethyl)paperazin-1-yl] ethanesulfonic acid (HEPES), pH 7.5, 10 mM MgCl2, 1 mM dithiothreitol (DTT), 0.01% bovine serum albumin (BSA), 0.005% Tween 20. Total Reaction volume of 10 μL proceeded for 60 minutes at room temperature (25° C.) and were quenched with 5 μL of 200 mM 2′,2″,2′″-(Ethane-1,2-diyldinitrilo)tetraacetic acid (EDTA) pH 8.0 before addition of 5 μL detection solution containing 100 nM fluorophore conjugate streptavidin allophycocyanin (SA-APC), 2 nM Europium labelled Anti-p-RB(S780)-K (Perkin Elmer, 64CUSKAY), 50 mM HEPES, pH 7.5, 400 mM potassium fluoride (KF), 0.1% BSA, and 0.01% Tween-20. Phosphorylation of S780 on RB1 peptide (His-MBP-RB1[773-924]-SEQ ID NO. 9) was detected by TR-FRET after 3 hour incubation with detection solution. Percent phosphorylation activity was plotted against log concentration of compound to generate an apparent ICSO. The following CDK enzyme in complex with different cyclin proteins and protein peptide substrate were used in these assays: • CDK1/CyclinB1, Avi-tag, 10 pM used in the assay • CDK2/CyclinE1, Avi-tag, 100 pM used in the assay • CDK4/cyclinD1, Avi-tag, 20 pM used in the assay • CDK6/cyclinD3, Avi-tag, 10 pM used in the assay • His-MBP-RB1[773-924], Avi-tag, 200 nM used in the assay
(§2) The avi-tag is a C-terminal fusion on the CDK1/2/4/6 sequence in each of these two-protein complexes. The known avi-tag sequence, […] (SEQ ID NO. 10), is a substrate for E. coli biotin ligase BirA, which covalently attaches a biotin molecule to the e-amino group of the lysine in that sequence. The avi-tag is attached with an 8 amino-acid linker sequence GGSGGGGS (SEQ ID NO. 11), resulting in the full C-terminal fusion
(§3) Recombinant proteins were generated as N-terminal fusions of 9× His tag—E. coli Maltose Binding Protein (MBP), with or without a C-terminal Avi-tag.^1 CDK2 and His-MBP-RB1[773-924]-c-avi were expressed in E. coli while the remainder were expressed in Sf21 insect cells. Genes were synthesized commercially (GeneArt and Twist Bioscience) using codon frequencies appropriate to the respective organisms and proprietary codon optimization strategies, and inserted into pET 24 (E. coli) or pDEST8 (insect) vectors already containing the 9× His-MBP tag using standard methods of PCR and Gibson Assembly.^2 E. coli expression was performed by auto-induction overnight at 18 or 21 C. For insect cell expression, bacmids and viruses were created,^3 then used to synchronously infect Sf21 insect cells with harvest at 40-48 hrs., per standard protocols.^4
(§4) For CDK2/Cyclin E and CDK1/Cyclin B, the CDK and Cyclin proteins were expressed separately, lysed by sonication and clarified by centrifugation. The fusion proteins were each separately purified by immobilized metal ion affinity chromatography (IMAC) (5 mL HisTrap, Cytiva) and Superdex 200 26/60 (Cytiva) size-exclusion and complexed in vitro (1-3 hrs incubation at room temperature) prior to tag cleavage by recombinant his-tagged Tobacco Etch Virus protease or his-tagged Human rhinovirus 3C protease, as appropriate. The cleaved complex is further purified by Superdex 75 26/60 (Cytiva) size-exclusion followed by reverse-IMAC, in which the complex is in the column flow-through and residual His-MBP and his-tagged proteases are retained. The final complex is concentrated as desired by centrifugal concentration (Amicon Ultra 10,000 Da MWCO 15 mL concentrators, Millipore).
For E. coli expressed CDK2 and His-MBP-RB1[773-924]-c-avi, the proteins were biotinylated in vitro after the first IMAC step.^1
(§5) For the is-MBP-RB1[773-924]-c-avi, the protein was lysed by sonication and clarified by centrifugation. […]

In the next experiment the target is CDK1/CyclinB1 (Homo sapiens, UniProt P06493). Conditions: CDK1/CyclinB1 10 pM, 1 mM ATP, 60 min at 25° C. The protocol: as §1, §2, §3, §4, §5
The target of another experiment is CDK4/cyclinD1 (Homo sapiens, UniProt P11802). To be noted: CDK4/cyclinD1 20 pM, 1 mM ATP, 60 min at 25° C. The protocol:
as §1, §2, §3
(§6) For CDK4/Cyclin D1 and CDK6/Cyclin D3, the complexes were expressed by simultaneous co-infection of insect cells by three separate viruses including one expressing untagged E. coli BirA. The expression media is supplemented with 50 uM d-biotin. The resulting protein complexes purified similarly. After lysis and clarification, the complex is purified by IMAC, Superdex 200 26/60 size exclusion, tag cleavage by human rhinovirus 3C protease, Superdex 75 26/60 size exclusion and reverse IMAC. BirA is typically not retained on the first IMAC, and excess CDK or Cyclin monomer is separated on the Superdex 200 size exclusion. Cleaved His-MBP and remaining monomer are removed by the Superdex 75 size exclusion and the reverse IMAC step. Final concentration by centrifugal concentrators as described above.
as §5

Another experiment concerns the target CDK6/cyclinD3 (Homo sapiens, UniProt Q00534). Conditions: CDK6/cyclinD3 10 pM, 1 mM ATP, 60 min at 25° C. As for the experimental part: as §1, §2, §3, §6, §5

Each structure is given as a SMILES string.

As to `O=C1N([C@@H]2CCC[C@@H](O)C2)c2nc(Nc3c[nH]nc3C3CC3(F)F)ncc2C12CC2` (single isomer, unassigned) [Example 32], the IC50 (as a rule, the concentration that inhibits the measured activity by half) on CDK2/CyclinE1 stood at 6 nM; on CDK1/CyclinB1 it was 340 nM; against CDK4/cyclinD1, 2760 nM; against CDK6/cyclinD3, 4800 nM.

Turning to `Cn1cc(Nc2ncc3c(n2)N([C@@H]2CCC[C@@H](O)C2)C(=O)C32CC2)cn1` [Example 1, 7′-((1R,3R)-3-hydroxycyclohexyl)-2′-((1-methyl-1H-pyrazol-4-yl)amino)spiro[cyclopropane-1,5′-pyrrolo[2,3-d]pyrimidin]-6′(7′H)-one], the IC50 at CDK2/CyclinE1 turned out to be 38 nM; on CDK1/CyclinB1, 1540 nM; against CDK4/cyclinD1, 400 nM; against CDK6/cyclinD3, 600 nM.

With `Cc1n[nH]cc1Nc1ncc2c(n1)N([C@@H]1CCC[C@@H](O)C1)C(=O)C21CC1` [Example 2, 7′-((1R,3R)-3-hydroxycyclohexyl)-2′-((3-methyl-1H-pyrazol-4-yl)amino)spiro[cyclopropane-1,5′-pyrrolo[2,3-d]pyrimidin]-6′(7′H)-one], the IC50 against CDK2/CyclinE1 stood at 18 nM; against CDK1/CyclinB1, 1210 nM; on CDK4/cyclinD1, 4520 nM; against CDK6/cyclinD3 it was 6680 nM.

For `O=C1N([C@@H]2CCC[C@@H](O)C2)c2nc(Nc3c[nH]nc3C(F)F)ncc2C12CC2` [Example 3, 2′-((3-(difluoromethyl)-1H-pyrazol-4-yl)amino)-7′-((1R,3R)-3-hydroxycyclohexyl)spiro[cyclopropane-1,5′-pyrrolo[2,3-d]pyrimidin]-6′(7′H)-one], the IC50 against CDK2/CyclinE1 was 7 nM; on CDK1/CyclinB1 it was 820 nM; against CDK4/cyclinD1, 2740 nM; on CDK6/cyclinD3, 3760 nM.

As to `COC(=O)c1n[nH]cc1Nc1ncc2c(n1)N([C@@H]1CCC[C@@H](O)C1)C(=O)C21CC1` [Example 4, methyl 4-((7′-((1R,3R)-3-hydroxycyclohexyl)-6′-oxo-6′,7′-dihydrospiro[cyclopropane-1,5′-pyrrolo[2,3-d]pyrimidin]-2′-yl)amino)-1H-pyrazole-3-carboxylate], the IC50 was 96 nM against CDK2/CyclinE1, not below 10000 nM against CDK1/CyclinB1, not below 10000 nM at CDK4/cyclinD1 and not below 10000 nM on CDK6/cyclinD3.

Take `Cc1cc(Nc2ncc3c(n2)N([C@@H]2CCC[C@@H](O)C2)C(=O)C32CC2)[nH]n1` [Example 5, 7′-((1R,3R)-3-hydroxycyclohexyl)-2′-((3-methyl-1H-pyrazol-5-yl)amino)spiro[cyclopropane-1,5′-pyrrolo[2,3-d]pyrimidin]-6′(7′H)-one]: the IC50 is 1120 nM against CDK2/CyclinE1, not below 10000 nM at CDK1/CyclinB1, 6690 nM at CDK4/cyclinD1 and 5730 nM against CDK6/cyclinD3.

As for `O=C1N([C@@H]2CCC[C@@H](O)C2)c2nc(Nc3c[nH]nc3CO)ncc2C12CC2` [Example 6, 7′-((1R,3R)-3-hydroxycyclohexyl)-2′-((3-(hydroxymethyl)-1H-pyrazol-4-yl)amino)spiro[cyclopropane-1,5′-pyrrolo[2,3-d]pyrimidin]-6′(7′H)-one], the IC50 was found to be 32 nM on CDK2/CyclinE1, 2940 nM at CDK1/CyclinB1, 840 nM on CDK4/cyclinD1 and 2180 nM at CDK6/cyclinD3.

For `Cc1n[nH]cc1Nc1ncc2c(n1)N([C@H]1C[C@H](O)CC(C)(C)C1)C(=O)C21CC1` [Example 7, 7′-((1R,5R)-5-hydroxy-3,3-dimethylcyclohexyl)-2′-((3-methyl-1H-pyrazol-4-yl)amino)spiro[cyclopropane-1,5′-pyrrolo[2,3-d]pyrimidin]-6′(7′H)-one], the IC50 was 136 nM against CDK2/CyclinE1, 5990 nM on CDK1/CyclinB1, 3860 nM against CDK4/cyclinD1 and 2210 nM on CDK6/cyclinD3.

Consider `O=C1N([C@@H]2CCC[C@@H](O)C2)c2nc(Nc3c[nH]nc3C3CCOC3)ncc2C12CC2` (stereo partly drawn) [Example 8, 7′-((1R,3R)-3-hydroxycyclohexyl)-2′-((3-(tetrahydrofuran-3-yl)-1H-pyrazol-4-yl)amino)spiro[cyclopropane-1,5′-pyrrolo[2,3-d]pyrimidin]-6′(7′H)-one], for which the IC50 on CDK2/CyclinE1 is 234 nM; at CDK1/CyclinB1, not below 10000 nM; on CDK4/cyclinD1 it was not below 10000 nM; at CDK6/cyclinD3, not below 10000 nM.

`O=C1N([C@@H]2CCC[C@@H](O)C2)c2nc(Nc3cnn4c3CNCC4)ncc2C12CC2` [Example 9, 7′-((1R,3R)-3-hydroxycyclohexyl)-2′-((4,5,6,7-tetrahydropyrazolo[1,5-a]pyrazin-3-yl)amino)spiro[cyclopropane-1,5′-pyrrolo[2,3-d]pyrimidin]-6′(7′H)-one]: the IC50 on CDK2/CyclinE1 is 268 nM; at CDK1/CyclinB1, not below 10000 nM; at CDK4/cyclinD1, not below 10000 nM; against CDK6/cyclinD3 it was not below 10000 nM.

`O=C1N([C@@H]2CCC[C@@H](O)C2)c2nc(Nc3c[nH]nc3C3CCCCO3)ncc2C12CC2` (stereo partly drawn) [Example 10, 7′-((1R,3R)-3-hydroxycyclohexyl)-2′-((3-(tetrahydro-2H-pyran-2-yl)-1H-pyrazol-4-yl)amino)spiro[cyclopropane-1,5′-pyrrolo[2,3-d]pyrimidin]-6′(7′H)-one]: the IC50 is 1220 nM on CDK2/CyclinE1, not below 10000 nM against CDK1/CyclinB1, not below 10000 nM against CDK4/cyclinD1 and not below 10000 nM on CDK6/cyclinD3.

Regarding `COCc1ncc(Nc2ncc3c(n2)N([C@@H]2CCC[C@@H](O)C2)C(=O)C32CC2)[nH]1` [Example 11, 7′-((1R,3R)-3-hydroxycyclohexyl)-2′-((2-(methoxymethyl)-1H-imidazol-5-yl)amino)spiro[cyclopropane-1,5′-pyrrolo[2,3-d]pyrimidin]-6′(7′H)-one], the IC50 was 1350 nM on CDK2/CyclinE1, not below 10000 nM on CDK1/CyclinB1, 5730 nM against CDK4/cyclinD1 and 9350 nM at CDK6/cyclinD3.

For the compound `COc1n[nH]cc1Nc1ncc2c(n1)N([C@@H]1CCCC[C@@H](O)C1)C(=O)C21CC1` [Example 18], the IC50 against CDK2/CyclinE1 was 114 nM; against CDK1/CyclinB1, not below 10000 nM; on CDK4/cyclinD1, not below 10000 nM.

Regarding `CSc1n[nH]cc1Nc1ncc2c(n1)N([C@@H]1CCC[C@@H](O)C1)C(=O)C21CC1` [Example 52, 7′-((1R,3R)-3-hydroxycyclohexyl)-2′-((3-(methylthio)-1H-pyrazol-4-yl)amino)spiro[cyclopropane-1,5′-pyrrolo[2,3-d]pyrimidin]-6′(7′H)-one], the IC50 against CDK2/CyclinE1 is 31 nM; at CDK1/CyclinB1, 5320 nM; against CDK6/cyclinD3, not below 10000 nM.
